According to patent US20060063784A1, “Method of using substituted pyrazolo [1,5-a] pyrimidines” (priority 2004, published 2006):
Where two headings read alike, the source gives them in different places.

Tested on: 80S14 (p21-deficient) cells
Assay: Cytotoxicity assay using isogenic cell lines: IC50 in 80S14 (p21-deficient) cells, SRB
Assay type: cell-based, human
Procedure, shortened: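 80S14 (p21-deficient) cells seeded at 12,000 cells/well overnight, then exposed 5 days at 37 °C to serial dilutions (5 pM–50 μM or 170 pg/ml–10 μg/ml). TCA-fixed, sulforhodamine B-stained, absorbance at 560 nm; IC50 taken from cytotoxicity curves versus untreated controls.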

[1] = Homo sapiens, 120 h, 80S14 p21-deficient cells, 5 days incubation, SRB, read-out: IC50 for 80SI4
[2] = Homo sapiens, 120 h, 80S14 (p21-deficient) cells, 5 days, SRB, class symbols, read-out: IC50 for 80S14
[3] = 80S14 (p21-deficient) cells, 5 days, SRB, class symbols, read-out: IC50 for 80S14
[4] = 80S14 p21-deficient cells, 5 days incubation, SRB, read-out: IC50 for 80SI4

| Compound | IC50 [1] [µM] | also measured |
| --- | --- | --- |
| Cn1cnc(S(=O)(=O)Nc2cccc(-c3ccnc4c(C(=O)c5cccs5)cnn34)c2)c1 [Example 39, 1-methyl-N-{3-[3-(thien-2-ylcarbonyl)pyrazolo[1,5-a]pyrimidin-7-yl]phenyl}-1H-imidazole-4-sulfonamide] | 10 to 50 |  |
| CCS(=O)(=O)Nc1cccc(-c2ccnc3c(C(=O)c4cccs4)cnn23)c1 [Example 28, N-{3-[3-(thien-2-ylcarbonyl)pyrazolo[1,5-a]pyrimidin-7-yl]phenyl}ethanesulfonamide] | < 1 |  |
| O=C(Nc1cccc(-c2ccnc3c(C(=O)c4cccs4)cnn23)c1)c1cccc(F)c1 [Example 98, 3-fluoro-N-{3-[3-(thien-2-ylcarbonyl)pyrazolo[1,5-a]pyrimidin-7-yl]phenyl}benzamide] | < 1 |  |
| Nc1cccc(-c2ccnc3c(Br)cnn23)c1 [Example 326, 3-(3-Bromopyrazolo[1,5-a]pyrimidin-7-yl)aniline] |  | IC50 [2]: 10 to 50 µM |
| CCOC(=O)c1cnn2c(-c3cccc(NC(=O)C4CCC4)c3)ccnc12 [Example 240, Ethyl 7-[3-[(cyclobutylcarbonyl)amino]phenyl]-pyrazolo[1,5-a]pyrimidine-3-carboxylic acid] |  | IC50 [3]: 10 to 50 µM |
| COc1ccc(-c2ccnc3c(C(=O)c4cccs4)cnn23)cc1NC(=O)OC(C)C [Example 316, Isopropyl 2-methoxy-5-[3-(2-thienylcarbonyl)pyrazolo[1,5-a]pyrimidin-7-yl]phenylcarbamate] |  | IC50 [2]: 1 to 10 µM |
| Cc1cnc2c(C(=O)c3cccs3)cnn2c1-c1cccc(NC(=O)Cc2cccs2)c1 [Example 219, N-{3-[6-methyl-3-(thien-2-ylcarbonyl)pyrazolo[1,5-a]pyrimidin-7-yl]phenyl}-2-thien-2-ylacetamide] | 10 to 50 |  |
| CSCCC(=O)Nc1cccc(-c2ccnc3c(C(=O)c4cccs4)cnn23)c1 [Example 50, 3-(methylthio)-N-{3-[3-(thien-2-ylcarbonyl)pyrazolo[1,5-a]pyrimidin-7-yl]phenyl}propanamide] | < 1 |  |
| O=C(c1cccs1)c1cnn2c(-c3cccc(OC4CCCC4)c3)ccnc12 [Example 265, [7-[3-(Cyclopentyloxy)phenyl]pyrazolo[1,5-a]pyrimidin-3-yl]-2-thienyl-methanone] |  | IC50 [2]: 1 to 10 µM |
| C#CCN(C(=O)C1CC1)c1cccc(-c2ccnc3c(C(=O)OCC)cnn23)c1 [Example 258, Ethyl 7-[3-[(cyclopropylcarbonyl)-2-propynylamino]phenyl]-pyrazolo[1,5-a]pyrimidine-3-carboxylic acid] |  | IC50 [3]: 10 to 50 µM |
| CC(C)OC(=O)NCC(=O)Nc1cccc(-c2ccnc3c(C(=O)c4cccs4)cnn23)c1 [Example 115, isopropyl 2-oxo-2-({3-[3-(thien-2-ylcarbonyl)pyrazolo[1,5-a]pyrimidin-7-yl]phenyl}amino)ethylcarbamate] | 1 to 10 |  |
| CN(C=O)c1cccc(-c2ccnc3c(C(=O)c4cccs4)cnn23)c1 [Example 261, Formamide, N-methyl-N-[3-[3-(2-thienylcarbonyl)pyrazolo[1,5-a]pyrimidin-7-yl]phenyl}] |  | IC50 [3]: 1 to 10 µM |
| 3.5-Dinitro-N-{3-[3-(2-thienylcarbonyl)pyrazolo[1,5-a]pyrimidin-7-yl]phenyl}benzamide [Example 288] |  | IC50 [3]: 10 to 50 µM |
| C=CCNC(=O)Nc1cccc(-c2ccnc3c(C(=O)c4cccs4)cnn23)c1 [Example 7, N-allyl-N′-{3-[3-(thien-2-ylcarbonyl)pyrazolo[1,5-a]pyrimidin-7-yl]phenyl}urea] | < 1 |  |
| C[C@H](N)C(=O)Nc1cccc(-c2ccnc3c(C(=O)c4cccs4)cnn23)c1 [Example 78, N-1-{3-[3-(thien-2-ylcarbonyl)pyrazolo[1,5-a]pyrimidin-7-yl]phenyl}-L-alaninamide] |  | IC50 [4]: 1 to 10 µM |
| O=C(Nc1cccc(-c2ccnc3c(C(=O)c4cccs4)cnn23)c1)c1ccc(Cl)cc1Cl [Example 289, 2,4-Dichloro-N-{3-[3-(2-thienylcarbonyl)pyrazolo[1,5-a]pyrimidin-7-yl]phenyl}benzamide] |  | IC50 [2]: 1 to 10 µM |
| CCC(OC(=O)Nc1cccc(-c2ccnc3c(C(=O)c4cccs4)cnn23)c1)C(C)C (centres unmarked) [Example 184, 1-ethyl-2-methylpropyl 3-[3-(thien-2-ylcarbonyl)pyrazolo[1,5-a]pyrimidin-7-yl]phenylcarbamate] | 1 to 10 |  |
| O=C(Nc1cccc(-c2ccnc3c(C(=O)c4cccs4)cnn23)c1)c1ccc(F)cc1 [Example 112, 4-fluoro-N-{3-[3-(thien-2-ylcarbonyl)pyrazolo[1,5-a]pyrimidin-7-yl]phenyl}benzamide] | < 1 |  |
| O=C(CCC1CCCC1)Nc1cccc(-c2ccnc3c(C(=O)c4cccs4)cnn23)c1 [Example 146, 3-cyclopentyl-N-{3-[3-(thien-2-ylcarbonyl)pyrazolo[1,5-a]pyrimidin-7-yl]phenyl}propanamide] | 1 to 10 |  |

| Compound | IC50 [1] [µM] | also measured |
| --- | --- | --- |
| CC(C)COC(=O)Nc1cccc(-c2ccnc3c(-c4cccs4)cnn23)c1 [Example 407, Isobutyl 3-(3-thien-2-ylpyrazolo[1,5-a]pyrimidin-7-yl)phenylcarbamate] |  | IC50 [2]: 1 to 10 µM |
| CC(C)C[C@H](N)C(=O)Nc1cccc(-c2ccnc3c(C(=O)c4cccs4)cnn23)c1 [Example 80, N-1-{3-[3-(thien-2-ylcarbonyl)pyrazolo[1,5-a]pyrimidin-7-yl]phenyl}-L-leucinamide] |  | IC50 [4]: 1 to 10 µM |
| Cc1cnc2c(C(=O)c3cccs3)cnn2c1-c1cccc(NC(=O)C2CCCC2)c1 [Example 218, N-{3-[6-methyl-3-(thien-2-ylcarbonyl)pyrazolo[1,5-a]pyrimidin-7-yl]phenyl}cyclopentanecarboxamide] | 10 to 50 |  |
| CN(C(=O)O)c1cccc(-c2ccnc3c(C(=O)c4cccs4)cnn23)c1 [Example 239, Methyl [3-[3-(2-thienylcarbonyl)pyrazolo-[1,5-a]pyrimidin-7-yl]phenyl}-carbamic acid] |  | IC50 [2]: 1 to 10 µM |
| O=C(Nc1cccc(-c2ccnc3c(C(=O)c4cccs4)cnn23)c1)c1cnc2ccccc2c1 [Example 70, N-{3-[3-(thien-2-ylcarbonyl)pyrazolo[1,5-a]pyrimidin-7-yl]phenyl}quinoline-3-carboxamide] | 1 to 10 |  |
| CC(=O)OCC(=O)Nc1cccc(-c2ccnc3c(C(=O)c4cccs4)cnn23)c1 [Example 62, 2-oxo-2-({3-[3-(thien-2-ylcarbonyl)pyrazolo[1.5-a]pyrimidin-7-yl]phenyl]amino)ethyl acetate] |  | IC50 [4]: 1 to 10 µM |
| O=C(Nc1cccc(-c2ccnc3c(C(=O)c4cccs4)cnn23)c1)OCc1ccccc1 [Example 24, benzyl 3-[3-(thien-2-ylcarbonyl)pyrazolo[1,5-a]pyrimidin-7-yl]phenylcarbamate] | < 1 |  |
| C/C=C/C(=O)Nc1cccc(-c2ccnc3c(C(=O)c4cccs4)cnn23)c1 [Example 149, (2E)-N-{3-[3-(thien-2-ylcarbonvl)pyrazolo[1,5-a]pyrimidin-7-yl]phenyl}but-2-enamide] |  | IC50 [4]: 1 to 10 µM |
| C=CC(=O)Nc1cccc(-c2ccnc3c(C(=O)c4cccs4)cnn23)c1 [Example 272, N-{3-[3-(2-Thienylcarbonyl)pyrazolo[1,5-a]pyrimidin-7-yl]phenyl}acrylamide] |  | IC50 [2]: < 1 µM |
| O=C(Cc1ccc2c(c1)OCO2)Nc1cccc(-c2ccnc3c(C(=O)c4cccs4)cnn23)c1 [Example 69, 2-(1,3-benzodioxol-5-yl)-N-{3-[3-(thien-2-ylcarbonyl)pyrazolo[1,5-a]pyrimidin-7-yl]phenyl}acetamide] | < 1 |  |
| C=C(C)C(=O)Nc1cccc(-c2ccnc3c(C(=O)c4cccs4)cnn23)c1 [Example 43, 2-methyl-N-{3-[3-(thien-2-ylcarbonyl)pyrazolo[1,5-a]pyrimidin-7-yl]phenyl}acrylamide] | < 1 |  |
| COc1cccc(C(=O)Nc2cccc(-c3ccnc4c(C(=O)c5cccs5)cnn34)c2)c1 [Example 97, 3-methoxy-N-{3-[3-(thien-2-ylcarbonyl)pyrazolo[1,5-a]pyrimidin-7-yl]phenyl}benzamide] | < 1 |  |
| O=C(Nc1cccc(-c2ccnc3c(C(=O)c4cccs4)cnn23)c1)c1ccc(Cl)c(Cl)c1 [Example 100, 3,4-dichloro-N-{3-[3-(thien-2-ylcarbonyl)pyrazolo[1,5-a]pyrimidin-7-yl]phenyl}benzamide] | 10 to 50 |  |
| CCCCCCC(=O)Nc1cccc(-c2ccnc3c(C(=O)c4cccs4)cnn23)c1 [Example 151, N-{3-[3-(thien-2-ylcarbonyl)pyrazolo[1,5-a]pyrimidin-7-yl]phenyl}heptanamide] | 1 to 10 |  |
| O=C(c1cccs1)c1cnn2c(-c3cccc(NC(=O)C4CCNCC4)c3)ccnc12 [Example 408, N-{3-[3-(Thien-2-ylcarbonyl)pyrazolo[1,5-a]pyrimidin-7-yl]phenyl}piperidine-4-carboxamide] |  | IC50 [2]: 1 to 10 µM |
| CC1CC1COC(=O)Nc1cccc(-c2ccnc3c(C(=O)c4cccs4)cnn23)c1 (centres unmarked) [Example 187, (2-methylcyclopropyl)methyl 3-[3-(thien-2-ylcarbonyl)pyrazolo[1,5-a]pyrimidin-7-yl]phenylcarbamate] | < 1 |  |
| CC(C)CC(=O)Nc1cccc(-c2ccnc3c(C(=O)c4ccoc4)cnn23)c1 [Example 304, N-{3-[3-(3-Furoyl)pyrazolo[1,5-a]pyrimidin-7-yl]phenyl}-3-methylbutanamide] |  | IC50 (Homo sapiens, 80S14, 120 h, read-out: IC50 for 80S14 (uM)): 1 to 10 µM |
| CC1CCC(OC(=O)Nc2cccc(-c3ccnc4c(C(=O)c5cccs5)cnn34)c2)C1 (centres unmarked) [Example 188, 3-methylcyclopentyl 3-[3-(thien-2-ylcarbonyl)pyrazolo[1,5-a]pyrimidin-7-yl]phenylcarbamate] | < 1 |  |
| O=C(Nc1cccc(-c2ccnc3c(C(=O)c4cccs4)cnn23)c1)c1ccc2ccccc2c1 [Example 104, N-{3-[3-(thien-2-ylcarbonyl)pyrazolo[1,5-a]pyrimidin-7-yl]phenyl}-2-naphthamide] | 10 to 50 |  |
